What was measured:
hEPO expression = assay: hEPO (miR126 + miR142) mRNA expression, Tables 8b-8e; assay type: in vivo
[1] = Encapsulation efficiency of RNA (QUANT-IT RIBOGREEN RNA assay); assay type: physicochemical; settings: Formulated with lipid:Chol:DOPE:PEG 1 40:38.5:20:1.5
Summary of the method: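 RiboGreen fluorescence (ex about 480, em about 520 nm) compares nanoparticle samples left intact versus disrupted with 2% Triton X-100 (15 min, 37° C). Samples are first brought to roughly 5 μg/mL in 10 mM Tris-HCl, 1 mM EDTA, pH 7.5; percent free RNA equals the blank-corrected intact/disrupted signal ratio.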

[2] = Lipid clearance: % dose remaining, Tables 7c and 8b-8e (species not given); assay type: in vivo
Description: In contrast, hEPO expression in rats induced by administration of a nanoparticle composition including a compound according to one of formulae (I), (Ia1)-(Ia6), (Ib), (II), (IIa), (III), and (IIIa) was substantially […] than that measured for MC3. […] Tables 7c and 7d show additional protein expressions and clearance data from compositions with various compounds disclosed herein as compared to with MC3. Tables 7e, 7f and 7g show hEPO expression data in CD-1 mice at a dose of 0.5 mpk.

[3] = Particle size and polydispersity index of nanoparticle compositions (Zetasizer Nano ZS); assay type: physicochemical; settings: Formulated with lipid:Chol:DOPE:PEG 1 40:38.5:20:1.5
Protocol: A Zetasizer Nano ZS (Malvem Instruments Ltd, Malvem, Worcestershire, UK) can be used to determine the particle size, the polydispersity index (PDI) and the zeta potential of the nanoparticle compositions in 1×PBS in determining particle size and 15 mM PBS in determining zeta potential.

SMILES	AUC (hEPO expression; Table 8c) [pg·h/mL]	EE (%) ([1]; Table 1e)	% Dose Remaining (liver, 24 h) ([2]; Table 8c) [%]	PDI ([3]; Table 1e)	Size (nm) ([3]; Table 1e)	also measured
CCCCC/C=C\CCN(CC/C=C\CCCCC)CCN(CC/C=C\CCCCC)CC(=O)N(C)CCN(C)C(=O)CN(CCCCCCCCC)CCCCCCCCC [Compound 154, 2-((2-(di((Z)-non-3-en-1-yl)amino)ethyl)((Z)-non-3-en-1-yl)amino)-N-(2-(2-(dinonylamino)-N-methylacetamido)ethyl)-N-methylacetamide]						AUC (hEPO expression; Table 8b): 1.37e+08 pg·h/mL; EE (%) ([1]; Table 1d): 97.8%; % Dose Remaining (liver, 24 h) ([2]; Table 8b): 78.44%; PDI ([3]; Table 1d): 0.18; Size (nm) ([3]; Table 1d): 103.3 nm
CCCCCCCCCN(CCCCCCCCC)CCN(CCCCCCCCC)CC(=O)N(C)CCCN(C)C(=O)CN(CCCCCCCCC)CCCCCCCCC [Compound 155, 2-(dinonylamino)-N-(3-(2-((2-(dinonylamino)ethyl)(nonyl)amino)-N-methylacetamido)propyl)-N-methylacetamide]						AUC (hEPO expression; Table 8b): 8.89e+07 pg·h/mL; EE (%) ([1]; Table 1d): 98.4%; % Dose Remaining (liver, 24 h) ([2]; Table 8b): 78.61%; PDI ([3]; Table 1d): 0.22; Size (nm) ([3]; Table 1d): 84.4 nm
CCCCCCCCCN(CCCCCCCCC)CCN(CCCCCCCCC)CC(=O)N(CC)CCN(CC)C(=O)CN(CCCCCCCCC)CCCCCCCCC [Compound 157, 2-(dinonylamino)-N-(2-(2-((2-(dinonylamino)ethyl)(nonyl)amino)-N-ethylacetamido)ethyl)-N-ethylacetamide]						AUC (hEPO expression; Table 8b): 2.08e+08 pg·h/mL; EE (%) ([1]; Table 1d): 98.3%; % Dose Remaining (liver, 24 h) ([2]; Table 8b): 42.48%; PDI ([3]; Table 1d): 0.11; Size (nm) ([3]; Table 1d): 89.8 nm
CCCCCCCCCCCCCCN(CCCOC(=O)CCCCCCCCC)CC(=O)N(C)CCN(C)C(=O)CN(CCCCCCCCC)CCN(CCCCCCCCC)CCCCCCCCC [Compound 158, 7,10-dimethyl-13,16-dinonyl-6,11-dioxo-4-tetradecyl-4,7,10,13,16-pentaazapentacosyl Decanoate]						AUC (hEPO expression; Table 8b): 1.03e+07 pg·h/mL; EE (%) ([1]; Table 1d): 97.8%; % Dose Remaining (liver, 24 h) ([2]; Table 8b): 0.30%; PDI ([3]; Table 1d): 0.20; Size (nm) ([3]; Table 1d): 124.2 nm
CCCCCCCCCN(CCCCCCCCC)CCCCCCCCN(CCCCCCCCC)CCN(CCCCCCCCC)CCCCCCCCC [Compound 160, N^1-(2-(dinonylamino)ethyl)-N^1,N^8,N^8-trinonyloctane-1,8-diamine]						AUC (hEPO expression; Table 8b): 219000 pg·h/mL; EE (%) ([1]; Table 1d): 97.3%; % Dose Remaining (liver, 24 h) ([2]; Table 8b): 60.54%; PDI ([3]; Table 1d): 0.25; Size (nm) ([3]; Table 1d): 115.5 nm
CCCCCCCCCN(CCCCCCCCC)CCCOCCCN(CCCCCCCCC)CCN(CCCCCCCCC)CCCCCCCCC [Compound 161, N^1-(3-(3-(dinonylamino)propoxy)propyl)-N^1,N^2,N^2-trinonylethane-1,2-diamine]	128000	97.8	113.64	0.17	61.8	
CCCCCCCCCCNC(=O)CN(CCCCCCCCC)CCN(CCCCCCCCC)CCCCCCCCC [Compound 162, N-decyl-2-((2-(dinonylamino)ethyl)(nonyl)amino)acetamide]	2.3e+07	98.4	63.12	0.23	73.1	
CCCCCCCCCCCCCCNC(=O)CN(CCCCCCCCC)CCN(CCCCCCCCC)CCCCCCCCC [Compound 163, 2-((2-(dinonylamino)ethyl)(nonyl)amino)-N-tetradecylacetamide]	1.01e+07	98.1	65.12	0.23	88.6	
CCCCCCCCCCN(CCCCCCCCCC)CCCCC(=O)N1CCN(C(=O)CCCCN(CCCCCCCCCC)CCCCCCCCCC)CC1 [Compound 164, 1,1′-(Piperazine-1,4-diyl)bis(5-(didecylamino)pentan-1-one)]	4.09e+06	97.7	40.18	0.15	74.4	
CCCCCCCCCN(CCCCCCCCC)CCN(CCCCCCCCC)CC(=O)NCCCCOC(=O)CCCC [Compound 165, 4-(2-((2-(dinonylamino)ethyl)(nonyl)amino)acetamido)butyl pentanoate]	9.38e+07	97.0	0.13	0.22	107.8	
CCCCCCCCCOC(=O)CN(CCCCCCCCC)CCN(CCCCCCCCC)CCCCCCCCC [Compound 166, Nonyl N-(2-(dinonylamino)ethyl)-N-nonylglycinate]	0	97.1	75.26	0.24	59.4	
CCCCCCCCCCCCCCOC(=O)CN(CCCCCCCCC)CCN(CCCCCCCCC)CCCCCCCCC [Compound 167, Tetradecyl N-(2-(dinonylamino)ethyl)-N-nonylglycinate]	0	97.6	89.60	0.22	64.5	
CCCCCCCCCN(CCCCCCCCC)CCN(CCCCCCCCC)CCOC(=O)CCCCCCCC [Compound 168, 2-((2-(Dinonylamino)ethyl)(nonyl)amino)ethyl Nonanoate]	0	97.3	2.74	0.17	60.0	
CCCCCCCCCCCCCC(=O)OCCN(CCCCCCCCC)CCN(CCCCCCCCC)CCCCCCCCC [Compound 169, 2-((2-(Dinonylamino)ethyl)(nonyl)amino)ethyl Tetradecanoate]	0	97.6	0.30	0.24	72.5	
CCCCCCCCCOC(=O)CCCCCCCN(CCCCCCCC(=O)OC(CCCCCCCC)CCCCCCCC)CCCCC(=O)N(CC)CCN(CC)C(=O)CCCCN(CCCCCCCC(=O)OCCCCCCCCC)CCCCCCCC(=O)OC(CCCCCCCC)CCCCCCCC [Compound 181, Di(heptadecan-9-yl) 15,18-diethyl-9,24-bis(8-(nonyloxy)-8-oxooctyl)-14,19-dioxo-9,15,18,24-tetraazadotriacontanedioate]						AUC (hEPO expression; Table 8d): 1.69e+08 pg·h/mL; EE (%) ([1]; Table 1f): 97.7%; % Dose Remaining (liver, 24 h) ([2]; Table 8d): 2.51%; PDI ([3]; Table 1f): 0.25; Size (nm) ([3]; Table 1f): 129.9 nm
CCCCCCCCCOC(=O)CCCCCCCN(CCCCCCCC(=O)OC(CCCCCCCC)CCCCCCCC)CCCCC(=O)N(C)CCCN(C)C(=O)CCCCN(CCCCCCCC(=O)OCCCCCCCCC)CCCCCCCC(=O)OC(CCCCCCCC)CCCCCCCC [Compound 182, Di(heptadecan-9-yl) 15,19-dimethyl-9,25-bis(8-(nonyloxy)-8-oxooctyl)-14,20-dioxo-9,15,19,25-tetraazatritriacontanedioate]						AUC (hEPO expression; Table 8d): 6.06e+07 pg·h/mL; EE (%) ([1]; Table 1f): 98.8%; % Dose Remaining (liver, 24 h) ([2]; Table 8d): 1.64%; PDI ([3]; Table 1f): 0.28; Size (nm) ([3]; Table 1f): 97.7 nm
CCCCCCCCCOC(=O)CCCCCCCN(CCCCCCCC(=O)OC(CCCCCCCC)CCCCCCCC)CCCCC(=O)N(C)CCN(C)C(=O)CCCCN(CCCCCCCC(=O)OCCCCCCCCC)CCCCCCCC(=O)OC(CCCCCCCC)CCCCCCCC [Compound 183, Di(heptadecan-9-yl) 15,18-dimethyl-9,24-bis(8-(nonyloxy)-8-oxooctyl)-14,19-dioxo-9,15,18,24-tetraazadotriacontanedioate]						AUC (hEPO expression; Table 8d): 6.53e+07 pg·h/mL; EE (%) ([1]; Table 1f): 99.1%; % Dose Remaining (liver, 24 h) ([2]; Table 8d): 1.87%; PDI ([3]; Table 1f): Multimodal; Size (nm) ([3]; Table 1f): 128.9 nm

Source: patent publication US12077501B2, “Compounds and compositions for intracellular delivery of agents” (ModernaTX, Inc., priority 2017, dated 2024)
